Molecules are shown by their SMILES. Calls of active or inactive are those of the source.

Test [1] has as its target Sphingosine 1-phosphate receptor 3 (Homo sapiens, UniProt Q99500). As to the kind of experiment: Late-stage fluorescence-based dose-response cell-based counterscreen assay to identify agonists of the Sphingosine 1-Phosphate Receptor 4 (S1P4): Sphingosine 1-Phosphate Receptor 3 (S1P3) agonist assay Set 2. It counts as functional. For orientation: The purpose of a counterscreen is to sort out artefacts and off-target activity.

Test [2] concerns the target Sphingosine 1-phosphate receptor 5 (Homo sapiens, UniProt Q9H228). The test is described as follows: S1P5 receptor agonists, human, late-stage follow-up, counter-screen for S1P4 agonist project, cell-based, fluorescence, set 2 (AID 504867). Type of test: functional.
Test [3] addresses Sphingosine 1-phosphate receptor 1 (Homo sapiens, UniProt P21453). As to the kind of experiment: Late-stage fluorescence-based dose-response cell-based counterscreen assay to identify agonists of the Sphingosine 1-Phosphate Receptor 4 (S1P4): Sphingosine 1-Phosphate Receptor 1 (S1P1) agonist assay Set 2. Type of test: functional.
Test [4] concerns the target Sphingosine 1-phosphate receptor 2 (Homo sapiens, UniProt O95136). The test is described as follows: S1P2 receptor agonists, human, late-stage follow-up, counter-screen for S1P4 agonist project, cell-based, fluorescence, set 2 (AID 504873). It counts as functional.
Test [5] has as its target DNA dC->dU-editing enzyme APOBEC-3A (Homo sapiens, UniProt P31941). As to the kind of experiment: SAR analysis of small molecule inhibitors of APOBEC3A DNA Deaminase via a fluorescence-based single-stranded DNA deaminase assay. It counts as functional. Conditions: read-out: IC50_Mean.
Test [6] has as its target DNA dC->dU-editing enzyme APOBEC-3G (Homo sapiens, UniProt Q9HC16). As to the kind of experiment: APOBEC3G deaminase inhibitors, SAR follow-up, biochemical, fluorescence, single-stranded DNA substrate (AID 602136). The conditions noted are these: read-out: IC50_Mean. It counts as functional.
The target of test [7] is T1, Apoptotic protease-activating factor 1 (Homo sapiens, UniProt O14727). As to the kind of experiment: SAR analysis of small molecule inhibitors of Apaf-1 in a Fluorescent assay. Type of test: functional. Conditions: read-out: IC50_Mean.
T1 sequence (O14727 whole entry): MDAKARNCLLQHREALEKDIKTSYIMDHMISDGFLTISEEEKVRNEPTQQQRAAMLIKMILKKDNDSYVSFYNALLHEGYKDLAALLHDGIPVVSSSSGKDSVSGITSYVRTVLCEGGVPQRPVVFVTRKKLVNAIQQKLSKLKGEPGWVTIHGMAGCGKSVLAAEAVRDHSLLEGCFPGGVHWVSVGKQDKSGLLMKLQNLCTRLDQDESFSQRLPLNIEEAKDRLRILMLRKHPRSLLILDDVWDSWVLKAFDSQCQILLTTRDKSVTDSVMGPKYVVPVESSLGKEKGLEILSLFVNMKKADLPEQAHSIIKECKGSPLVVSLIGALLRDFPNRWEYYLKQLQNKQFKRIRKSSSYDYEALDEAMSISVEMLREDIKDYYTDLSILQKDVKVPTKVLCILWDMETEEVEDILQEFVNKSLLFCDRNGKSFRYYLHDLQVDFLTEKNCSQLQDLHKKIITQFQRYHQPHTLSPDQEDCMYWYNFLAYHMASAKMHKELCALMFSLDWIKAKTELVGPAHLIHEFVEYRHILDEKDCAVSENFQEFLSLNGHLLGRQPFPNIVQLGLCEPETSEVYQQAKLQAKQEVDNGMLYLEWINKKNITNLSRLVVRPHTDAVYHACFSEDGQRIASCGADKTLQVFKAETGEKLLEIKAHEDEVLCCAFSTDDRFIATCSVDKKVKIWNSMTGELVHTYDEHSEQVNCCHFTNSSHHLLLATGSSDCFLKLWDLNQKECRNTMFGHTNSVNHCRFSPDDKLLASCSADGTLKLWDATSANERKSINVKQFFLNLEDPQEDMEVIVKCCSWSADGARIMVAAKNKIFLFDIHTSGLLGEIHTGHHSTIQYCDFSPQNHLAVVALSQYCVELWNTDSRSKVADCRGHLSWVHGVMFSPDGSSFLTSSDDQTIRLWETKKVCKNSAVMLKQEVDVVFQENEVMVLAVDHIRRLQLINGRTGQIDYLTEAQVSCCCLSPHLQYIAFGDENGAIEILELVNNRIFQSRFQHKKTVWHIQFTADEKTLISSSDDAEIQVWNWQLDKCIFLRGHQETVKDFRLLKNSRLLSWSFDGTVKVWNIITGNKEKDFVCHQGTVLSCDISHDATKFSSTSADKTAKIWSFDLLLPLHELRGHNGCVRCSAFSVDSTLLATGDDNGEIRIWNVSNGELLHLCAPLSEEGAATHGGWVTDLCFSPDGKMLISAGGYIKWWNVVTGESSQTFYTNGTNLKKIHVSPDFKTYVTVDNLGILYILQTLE
Test [8] can be described thus: IGROV1 ovarian cancer cell cytotoxicity, dose response, PAX8 inhibitor project, plate reader, dry powder samples (AID 743043). It counts as functional, cell-based. Conditions: IGROV-1.
A short description of test [9]: cytotoxicity in OV-90 ovarian cancer cells, dose response, PAX8 inhibitor project, cell-based, plate reader, dry powder, SA8 (AID 743149). Type of test: functional.
Test [10] is described as follows: NIH:OVCAR-3 ovarian cancer cell cytotoxicity, dose response, PAX8 inhibitor project, plate reader, dry powder samples (AID 743044). It counts as functional, cell-based.
Test [11] relates to HEK293. The test is described as follows: cells. It counts as functional, cell-based. The conditions noted are these: Homo sapiens.
Test [12] deals with HEK293. The test is described as follows: NOD1 signaling inhibitors, primary screen, cell-based, luminescence, uHTS (AID 1578). It counts as functional. The conditions noted are these: Homo sapiens.
Test [13] can be described thus: cytotoxicity toward DRD oncogenic fibroblasts, dose response, cell-based, non-viral oncogenic, luminescence (AID 1934). It counts as functional. Conditions: Homo sapiens.
Test [14] can be described thus: Luminescence-based dose response cell-based high throughput screening assay for cytotoxic compounds using the IEC-6 intestinal epithelial cell line. [Related pubchem assays: 1858 (Summary AID.), 1825 (Counterscreen.), 1907 (Confirmation screen.)]. It counts as functional.
For the next test, the system named is Jurkat. The test is described as follows: SAR Analysis of small molecule inhibitors of both B-cell and T-cell specific antigen receptor-induced NF-kB activation in a Jurkat cell line using a luminescence assay. [Related pubchem assays (depositor defined):AID435003, AID435022, AID465, AID489029]. Type of test: functional, cell-based. Conditions: Homo sapiens.

Another test has as its target Paired box protein Pax-8 (Homo sapiens, UniProt Q06710). As to the kind of experiment: inhibitors of PAX8-driven TPO luciferase reporter, dose response, RMG-I cells, cherry-pick (AID 687027).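 Also: luciferase reporter driven by Pax8 target thyroperoxidase promoter measured by SteadyGlo luminescence.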 Type of test: functional, cell-based. Background: A reporter such as luciferase makes a cellular process visible.
Test [15] concerns HEK293. The test is described as follows: SAR Analysis of small molecule inhibitors of both B-cell and T-cell specific antigen receptor-induced NF-kB activation in a HEK-293T cell line using a luminescence assay. [Related pubchem assays (depositor defined):AID435003, AID435022, AID465, AID489019, AID489029]. Type of test: functional, cell-based. Conditions: Homo sapiens.
The nature of test [16]: PAX2 cell-based inhibition, dose response, selectivity assay for PAX8 inhibitor project, plate reader, dry powder samples (AID 743048).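 Also: HEK293 cells carrying a WT1 promoter luciferase reporter driven by expressed Pax2; potency is for inhibition of Pax2 driven reporter signal.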 It counts as functional.
Test [17] is described as follows: cytotoxicity in COV434 cells, dose response, cytotoxicity control for PAX8 inhibitor project, cell-based, plate reader, dry powder, SA7 (AID 743145). It counts as functional.
Test [18] has as its system HEK293. The test is described as follows: cells. Type of test: functional, cell-based. Conditions: Homo sapiens. The source holds these as a separate data set.
Test [19] deals with BJ. As to the kind of experiment: cells. The conditions noted are these: Homo sapiens. Type of test: functional, cell-based.
Test [20] can be described thus: cytotoxicity dependent on PAX8, dose response, cell-based, plate reader, dry powder (AID 743049). Type of test: functional.
Test [21] concerns BJ. The test is described as follows: cytotoxicity toward BJ-TERT-LT-ST fibroblasts, dose response, cell-based, RAS-independent, luminescence (AID 1935).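 Also: BJ fibroblasts immortalized with TERT plus LT and ST oncogenes.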 It counts as functional. The conditions noted are these: Homo sapiens.
Test [22] in a line: cytotoxicity in OVCAR4 cells, dose response, cytotoxicity control for PAX8 inhibitor project, cell-based, plate reader, dry powder, SA11 (AID 743150). Type of test: functional. Conditions: OVCAR-4.
Test [23] concerns the target Type-1 angiotensin II receptor (Homo sapiens, UniProt P30556). As to the kind of experiment: AT1 receptor antagonists, dose response, selectivity assay for APJ receptor antagonist project, cell-based, uHTS hits (AID 463214).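 Also: antagonist potency against angiotensin II stimulated AT1 response.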 Type of test: functional.
The target in test [24] is Nucleotide-binding oligomerization domain-containing protein 2 (Homo sapiens, UniProt Q9HC29). As to the kind of experiment: NOD2 signaling inhibitors, cell-based, luminescence, uHTS, HEK293 (AID 1566). It counts as functional.
In test [25] the test system is HEK293. The test is described as follows: cells. It counts as functional, cell-based. The conditions noted are these: Homo sapiens. The source holds these as a separate data set.
The target in test [26] is Glucose-6-phosphate 1-dehydrogenase (Homo sapiens, UniProt P11413). As to the kind of experiment: human G6PD enzyme inhibitors, dose response, selectivity assay for P. falciparum G6PD inhibitor project, biochemical, fluorescence (AID 504792). Type of test: functional.
Glucose-6-phosphate 1-dehydrogenase, sequence (P11413 whole entry): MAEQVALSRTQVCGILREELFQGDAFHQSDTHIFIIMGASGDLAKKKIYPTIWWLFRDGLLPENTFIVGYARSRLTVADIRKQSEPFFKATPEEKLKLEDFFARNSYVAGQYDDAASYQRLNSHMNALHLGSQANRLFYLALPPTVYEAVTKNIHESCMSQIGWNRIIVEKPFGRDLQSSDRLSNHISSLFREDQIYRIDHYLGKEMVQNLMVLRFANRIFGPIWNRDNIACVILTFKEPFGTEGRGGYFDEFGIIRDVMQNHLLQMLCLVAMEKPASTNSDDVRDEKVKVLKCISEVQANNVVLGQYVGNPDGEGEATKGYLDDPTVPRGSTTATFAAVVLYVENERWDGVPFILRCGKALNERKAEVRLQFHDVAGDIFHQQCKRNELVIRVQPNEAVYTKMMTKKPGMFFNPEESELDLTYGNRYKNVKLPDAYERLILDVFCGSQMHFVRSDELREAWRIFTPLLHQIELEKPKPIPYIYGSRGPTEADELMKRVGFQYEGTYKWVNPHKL
In a further test the test system is Vero. As to the kind of experiment: host cell cytotoxicity of antiviral hits, dose response, cytotoxicity control for West Nile virus antiviral project, secondary assay (AID 1650). Conditions: Chlorocebus sabaeus. Type of test: functional.
Test [27] concerns HEK293. The test is described as follows: NOD2 signaling inhibitors in MDP-stimulated cells, cell-based, uHTS, luminescence (AID 2001). Type of test: functional. The conditions noted are these: Homo sapiens.
A further test addresses Beta-galactosidase (Escherichia coli, UniProt Q8VNN2). As to the kind of experiment: PubChem AID 485352. It counts as functional.
The target of another test is T2, Streptokinase A (Streptococcus pyogenes serotype M1, UniProt P10520).
T2 sequence (P10520 whole entry): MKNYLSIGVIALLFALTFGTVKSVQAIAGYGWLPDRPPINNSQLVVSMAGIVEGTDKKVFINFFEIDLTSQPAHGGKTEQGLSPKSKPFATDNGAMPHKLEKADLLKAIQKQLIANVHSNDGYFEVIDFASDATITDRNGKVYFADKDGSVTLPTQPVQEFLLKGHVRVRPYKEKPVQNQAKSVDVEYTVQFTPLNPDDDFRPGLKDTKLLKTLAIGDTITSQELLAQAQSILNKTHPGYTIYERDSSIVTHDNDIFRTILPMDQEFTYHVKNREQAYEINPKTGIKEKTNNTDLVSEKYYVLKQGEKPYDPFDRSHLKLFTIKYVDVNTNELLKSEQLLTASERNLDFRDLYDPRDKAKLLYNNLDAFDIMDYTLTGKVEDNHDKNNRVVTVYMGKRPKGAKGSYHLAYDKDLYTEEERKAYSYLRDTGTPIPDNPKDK
As to the kind of experiment: S. pyogenes streptokinase expression inhibitors, potency, dose response, plasminogen activation absorbance, OD405 (AID 1914).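 Also: secreted streptokinase activity via plasminogen activation per viability signal from cell pellet.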 Type of test: functional, Streptococcus pyogenes M1 GAS.

The subject of test [28] is BJ. The test is described as follows: cytotoxicity toward Ras-transformed BJeLR fibroblasts, dose response, cell-based, alamar blue fluorescence, cherrypicked samples (AID 2631).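 Also: confirmatory dose-response assay in RAS-dependent BJ fibroblasts engineered with TERT, LT and ST, with cytotoxicity read by fluorescence.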 Type of test: functional. The conditions noted are these: Homo sapiens.
For test [29], the system named is Streptococcus sp. 'group A'. As to the kind of experiment: growth inhibition of control SK(-) GAS strain, dose response, counter-screen for streptokinase expression inhibitor project, luminescence, kanamycin, BacTiterGlo, confirmation (AID 1900). Type of test: functional, organism-based.
A short description of test [30]: PAX5 activity inhibitors, dose response, selectivity assay for PAX8 inhibitor project, cell-based, plate reader, dry powder samples (AID 743047).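 Also: HEK293 cells carrying a Pax5 driven CD19 promoter luciferase reporter; potency of inhibitors that lower reporter luminescence.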 Type of test: functional.
The next test deals with Streptococcus. As to the kind of experiment: Group A Streptococcus viability loss, dose response, counter-screen for streptokinase expression inhibitor project, luminescence, BacTiterGlo (AID 1915).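 Also: potency for reduction of bacterial viability or growth.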 It counts as functional, organism-based.
The test system of test [31] is BJ. As to the kind of experiment: cytotoxicity toward BJ-TERT fibroblasts, dose response, cell-based, RAS-independent, luminescence (AID 1933). Type of test: functional. The conditions noted are these: Homo sapiens.
The test system of test [32] is HEK293. As to the kind of experiment: cytotoxicity in HEK293T NF-kB-Luc cells, SAR follow-up, cytotoxicity control for NF-kB activator project, cell-based, resazurin fluorescence (AID 493251). Type of test: functional. Conditions: Homo sapiens. Background: The colour change of resazurin is a common sign of viable cells or microbes.
The target of test [33] is T3, Fatty acid synthase (Homo sapiens, UniProt P49327). As to the kind of experiment: FAS thioesterase domain inhibitors, dose response, biochemical, endpoint fluorescence intensity, uHTS hits (AID 624327).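 Also: fluorescence from hydrolysis of an O-methyl fluorescein acyl ester substrate by the enzyme.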 Type of test: functional.
T3 sequence (P49327 whole entry, the tested form may be a part): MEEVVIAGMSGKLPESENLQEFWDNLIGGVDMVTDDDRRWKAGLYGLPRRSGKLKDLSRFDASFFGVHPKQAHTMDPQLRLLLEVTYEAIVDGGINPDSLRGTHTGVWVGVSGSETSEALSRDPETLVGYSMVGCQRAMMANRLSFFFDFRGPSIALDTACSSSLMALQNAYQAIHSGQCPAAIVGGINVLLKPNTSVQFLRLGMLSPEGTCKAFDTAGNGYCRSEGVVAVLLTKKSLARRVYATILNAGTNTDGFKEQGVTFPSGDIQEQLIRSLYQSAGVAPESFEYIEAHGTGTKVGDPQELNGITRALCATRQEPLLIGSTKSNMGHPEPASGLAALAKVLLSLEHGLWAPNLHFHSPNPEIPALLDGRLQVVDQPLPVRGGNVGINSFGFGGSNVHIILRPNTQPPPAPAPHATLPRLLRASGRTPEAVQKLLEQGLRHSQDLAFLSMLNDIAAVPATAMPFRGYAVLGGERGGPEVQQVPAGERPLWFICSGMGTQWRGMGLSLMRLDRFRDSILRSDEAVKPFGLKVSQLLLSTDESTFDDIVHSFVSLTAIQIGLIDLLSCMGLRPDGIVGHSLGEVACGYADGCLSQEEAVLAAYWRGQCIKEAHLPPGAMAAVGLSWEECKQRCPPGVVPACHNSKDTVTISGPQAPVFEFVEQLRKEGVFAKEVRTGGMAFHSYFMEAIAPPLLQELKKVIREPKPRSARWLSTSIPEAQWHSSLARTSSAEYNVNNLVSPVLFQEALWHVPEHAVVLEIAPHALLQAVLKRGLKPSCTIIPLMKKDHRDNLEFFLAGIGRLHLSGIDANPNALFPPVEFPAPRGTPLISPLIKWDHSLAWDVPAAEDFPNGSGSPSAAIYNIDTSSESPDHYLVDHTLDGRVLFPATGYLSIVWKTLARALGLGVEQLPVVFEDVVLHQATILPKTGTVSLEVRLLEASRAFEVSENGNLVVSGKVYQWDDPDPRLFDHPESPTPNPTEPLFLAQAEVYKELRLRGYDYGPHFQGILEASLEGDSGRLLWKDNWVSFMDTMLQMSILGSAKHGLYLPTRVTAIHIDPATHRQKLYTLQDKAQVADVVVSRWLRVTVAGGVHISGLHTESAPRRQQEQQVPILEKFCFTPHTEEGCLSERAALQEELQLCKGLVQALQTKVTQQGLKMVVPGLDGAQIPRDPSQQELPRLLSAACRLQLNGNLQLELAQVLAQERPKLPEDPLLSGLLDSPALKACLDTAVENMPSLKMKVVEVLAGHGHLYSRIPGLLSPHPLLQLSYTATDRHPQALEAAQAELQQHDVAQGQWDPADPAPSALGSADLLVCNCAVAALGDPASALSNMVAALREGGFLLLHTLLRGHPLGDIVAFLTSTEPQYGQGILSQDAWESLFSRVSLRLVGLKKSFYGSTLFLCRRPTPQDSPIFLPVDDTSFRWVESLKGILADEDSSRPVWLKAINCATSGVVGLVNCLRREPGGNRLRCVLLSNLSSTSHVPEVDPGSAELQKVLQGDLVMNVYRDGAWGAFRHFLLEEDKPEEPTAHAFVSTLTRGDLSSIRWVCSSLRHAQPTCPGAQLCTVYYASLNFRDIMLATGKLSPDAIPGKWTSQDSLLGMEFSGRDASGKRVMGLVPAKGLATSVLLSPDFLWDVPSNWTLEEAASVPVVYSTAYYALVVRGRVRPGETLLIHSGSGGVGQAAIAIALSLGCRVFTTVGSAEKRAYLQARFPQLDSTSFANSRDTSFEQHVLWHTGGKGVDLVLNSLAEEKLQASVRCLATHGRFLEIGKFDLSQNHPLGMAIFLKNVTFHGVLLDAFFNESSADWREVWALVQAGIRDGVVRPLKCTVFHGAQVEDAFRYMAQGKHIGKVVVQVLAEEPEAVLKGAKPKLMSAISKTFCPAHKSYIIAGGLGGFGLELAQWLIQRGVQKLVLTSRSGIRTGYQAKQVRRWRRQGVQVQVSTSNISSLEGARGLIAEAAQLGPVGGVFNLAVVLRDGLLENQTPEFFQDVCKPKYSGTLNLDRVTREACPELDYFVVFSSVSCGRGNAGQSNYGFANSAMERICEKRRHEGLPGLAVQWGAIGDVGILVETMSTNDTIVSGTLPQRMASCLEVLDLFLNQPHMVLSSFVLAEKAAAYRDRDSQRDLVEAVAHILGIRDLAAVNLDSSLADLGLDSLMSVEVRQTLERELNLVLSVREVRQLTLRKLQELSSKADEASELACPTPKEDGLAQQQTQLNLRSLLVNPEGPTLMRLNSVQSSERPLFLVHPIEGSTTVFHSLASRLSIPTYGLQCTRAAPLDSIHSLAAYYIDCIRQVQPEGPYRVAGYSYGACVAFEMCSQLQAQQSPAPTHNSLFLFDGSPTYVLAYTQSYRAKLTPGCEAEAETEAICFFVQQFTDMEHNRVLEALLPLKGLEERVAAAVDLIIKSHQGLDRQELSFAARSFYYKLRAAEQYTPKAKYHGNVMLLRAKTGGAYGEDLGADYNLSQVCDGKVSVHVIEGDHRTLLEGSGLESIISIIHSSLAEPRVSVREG
Test [34] has as its target T3, Fatty acid synthase. The test is described as follows: FAS thioesterase domain inhibitors, dose response, biochemical, kinetic fluorescence intensity (AID 624326).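 Also: rate of fluorescence rise from hydrolysis of a fluorogenic O-methyl fluorescein ester substrate.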 It counts as functional.
Test [35] deals with T1, Apoptotic protease-activating factor 1. It counts as functional.

Sphingosine 1-phosphate receptor 5, sequence (Q9H228 whole entry): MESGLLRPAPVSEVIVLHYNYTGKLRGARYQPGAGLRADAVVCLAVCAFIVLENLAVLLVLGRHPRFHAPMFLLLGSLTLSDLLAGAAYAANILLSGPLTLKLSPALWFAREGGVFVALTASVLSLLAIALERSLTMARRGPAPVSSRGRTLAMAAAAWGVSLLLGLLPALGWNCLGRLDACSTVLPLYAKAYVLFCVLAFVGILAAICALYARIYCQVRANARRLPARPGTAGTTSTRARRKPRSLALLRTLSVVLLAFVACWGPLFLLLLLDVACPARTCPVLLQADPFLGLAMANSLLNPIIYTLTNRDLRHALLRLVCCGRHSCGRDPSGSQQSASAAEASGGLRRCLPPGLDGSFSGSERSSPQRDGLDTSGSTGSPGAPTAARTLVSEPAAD
Sphingosine 1-phosphate receptor 3, sequence (Q99500 whole entry): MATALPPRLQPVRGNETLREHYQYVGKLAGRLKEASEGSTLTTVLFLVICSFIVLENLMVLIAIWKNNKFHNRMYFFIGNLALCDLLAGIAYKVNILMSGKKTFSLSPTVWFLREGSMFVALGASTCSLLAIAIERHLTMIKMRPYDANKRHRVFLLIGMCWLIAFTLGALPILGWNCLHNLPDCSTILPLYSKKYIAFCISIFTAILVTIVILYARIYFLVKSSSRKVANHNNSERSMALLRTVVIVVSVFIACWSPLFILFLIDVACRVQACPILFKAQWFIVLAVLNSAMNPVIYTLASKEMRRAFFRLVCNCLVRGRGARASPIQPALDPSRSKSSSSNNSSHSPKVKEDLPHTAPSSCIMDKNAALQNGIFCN

The EC50 is the concentration giving half of the maximal effect. Take `CC/N=C1/S/C(=C/c2cc(C)n(Cc3ccccc3)c2C)C(=O)N1CC`: the EC50 is 12.9 µM (inactive) in test [1], 0.0631 µM (active) in [2], 0.185 µM (active) in test [3] and 3.28 µM (active) in test [4].
For the compound `O=C1NC(=S)NC(=O)C1=Cc1ccc2c(c1)CCN2Cc1ccccc1Cl`, the IC50 is 9.78 µM (active) in test [5] and 77.5 µM (inactive) in [6].
`CCN(CC)CCOC(=O)c1ccc(N/C=C(\C#N)c2nc(-c3ccc(Cl)c(Cl)c3)cs2)cc1`: the IC50 in [7] was 6.88 µM (active).
As a reminder, the AC50 is the midpoint of the concentration-response curve, whichever way the signal moves. Broadly, the CC50 is the concentration that lowers cell viability or growth by half. With `O=S(=O)(Nc1cccc2cccnc12)c1ccccc1`, the AC50 in test [8] is 26.3 µM (active); in test [9] it was 15.3 µM (active); in test [10], 38.9 µM (active); on Paired box protein Pax-8, 6.46 µM (active); in test [16], 32.4 µM (active); in test [17], 19.3 µM (active). For the same compound, the figures for the AC50 in [20], in [22] and in test [30] were 20.7 µM (active), 21.4 µM (active) and 33.2 µM (active), respectively. For the same compound, the IC50 was 11.7 µM (active) in the test with HEK293 [11]; 2.08 µM (active) in test [14]; 0.89 µM (active) in the test on Jurkat; 44.8 µM (inactive) in the test with HEK293 [15]; > 20 µM (inactive) in the test with HEK293 [18]; 2.75 µM (active) in [23]. For the same compound, the IC50 in the test on HEK293 [25] was 2.74 µM (active); in test [26], 51.9 µM (inactive); with HEK293 [27] it was 1.83 µM (inactive); in the test with HEK293 [32], > 80 µM (inactive). The EC50 in the test on HEK293 [12] was > 20 µM (inactive); in test [13] it was 34 µM (active); in the test on BJ [19], 17.2 µM (active); with BJ [21], > 150 µM (not active); in test [24], > 20 µM (inactive); at Beta-galactosidase, > 40 µM (inactive). The EC50 at Streptokinase A was > 150 µM (not active); with BJ [28], 0.572 µM (active); in test [29], 3.27 µM (active); in the test with Streptococcus it was 12.3 µM (active); in the test on BJ [31] it was 28.1 µM (active). In addition, the CC50 with Vero was 7.94 µM (active).
On to `CC(C)c1ccc(/C=N/Nc2cc(N3CCOCC3)nc(N3CCOCC3)n2)cc1`, for which the figures for the IC50 (on Fatty acid synthase [33]; on Fatty acid synthase [34]; in [35]) were 0.752 µM (active), 0.379 µM (active) and 19.1 µM (active), respectively.

These data come from ChEMBL document CHEMBL1201862, “PubChem BioAssay data set” (2004).
